Experimental data taken from PubChem BioAssay AID1963830 (Molecular Pharmacology Branch, DTP, NCI, 2024).

Test system: 922993-354-T-J3-PDC complex spheroid viability
Experiment: Anticancer human tumor 922993-354-T-J3-PDC patient-derived endometrial carcinoma cell line growth inhibition [POLQ]
Details: for IC50: curve of first compound; for viability, T/C: stronger effect = lower value
How it was run: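 Three-cell-type spheroids modelling solid tumor plus stroma served as the readout system; POL inhibitors were tested individually and in combination, concentration ranges set by clinical Cmax where known.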

[1] = second compound 0.0316 µM, first compound 0.0316 µM
[2] = second compound 0.0316 µM, first compound 0.1 µM
[3] = second compound 0.0316 µM, first compound 0.316 µM
[4] = second compound 0.0316 µM, first compound 1 µM
[5] = second compound 0.0316 µM, first compound 3.16 µM
[6] = second compound 0.0316 µM, first compound 10 µM
[7] = second compound 0.1 µM, first compound 0.0316 µM
[8] = second compound 0.1 µM, first compound 0.1 µM
[9] = second compound 0.1 µM, first compound 0.316 µM
[10] = second compound 0.1 µM, first compound 1 µM
[11] = second compound 0.1 µM, first compound 3.16 µM
[12] = second compound 0.1 µM, first compound 10 µM
[13] = second compound 0.316 µM, first compound 0.0316 µM
[14] = second compound 0.316 µM, first compound 0.1 µM
[15] = second compound 0.316 µM, first compound 0.316 µM
[16] = second compound 0.316 µM, first compound 1 µM
[17] = second compound 0.316 µM, first compound 3.16 µM
[18] = second compound 0.316 µM, first compound 10 µM
[19] = second compound 1 µM, first compound 0.0316 µM
[20] = second compound 1 µM, first compound 0.1 µM
[21] = second compound 1 µM, first compound 0.316 µM
[22] = second compound 1 µM, first compound 1 µM
[23] = second compound 1 µM, first compound 3.16 µM
[24] = second compound 1 µM, first compound 10 µM
[25] = second compound 3.16 µM, first compound 0.0316 µM
[26] = second compound 3.16 µM, first compound 0.1 µM
[27] = second compound 3.16 µM, first compound 0.316 µM
[28] = second compound 3.16 µM, first compound 1 µM
[29] = second compound 3.16 µM, first compound 3.16 µM
[30] = second compound 3.16 µM, first compound 10 µM
[31] = second compound 10 µM, first compound 0.0316 µM
[32] = second compound 10 µM, first compound 0.1 µM
[33] = second compound 10 µM, first compound 0.316 µM
[34] = second compound 10 µM, first compound 1 µM
[35] = second compound 10 µM, first compound 3.16 µM
[36] = second compound 10 µM, first compound 10 µM
[37] = second compound 0.0316 µM, first compound 0.00316 µM
[38] = second compound 0.0316 µM, first compound 0.01 µM
[39] = second compound 0.1 µM, first compound 0.00316 µM
[40] = second compound 0.1 µM, first compound 0.01 µM
[41] = second compound 0.316 µM, first compound 0.00316 µM
[42] = second compound 0.316 µM, first compound 0.01 µM
[43] = second compound 1 µM, first compound 0.00316 µM
[44] = second compound 1 µM, first compound 0.01 µM
[45] = second compound 3.16 µM, first compound 0.00316 µM
[46] = second compound 3.16 µM, first compound 0.01 µM
[47] = second compound 10 µM, first compound 0.00316 µM
[48] = second compound 10 µM, first compound 0.01 µM
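Note: spheroids exposed to the agents for one week.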
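Throughout, for viability, T/C: 100% = DMSO vehicle control wells.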

O=c1[nH]cc(F)c(=O)[nH]1 + Cc1cccc(N(C)C(=O)C2C(O)CCN2c2nc(C)cc(C(F)(F)F)c2C#N)c1
IC50 (second compound 0.0316 µM): 2290 nM
IC50 (second compound 0.1 µM): 2130 nM
IC50 (second compound 0.316 µM): 2100 nM
IC50 (second compound 1 µM): 2280 nM
IC50 (second compound 3.16 µM): 2540 nM
IC50 (second compound 10 µM): 2490 nM
viability, T/C [1]: 102%
viability, T/C [2]: 100%
viability, T/C [3]: 93%
viability, T/C [4]: 90%
viability, T/C [5]: 34.6%
viability, T/C [6]: 16.3%
viability, T/C [7]: 89.5%
viability, T/C [8]: 95.7%
viability, T/C [9]: 97.8%
viability, T/C [10]: 94.4%
viability, T/C [11]: 26.9%
viability, T/C [12]: 17.5%
viability, T/C [13]: 108%
viability, T/C [14]: 96.1%
viability, T/C [15]: 102%
viability, T/C [16]: 86.6%
viability, T/C [17]: 29.7%
viability, T/C [18]: 14.8%
viability, T/C [19]: 103%
viability, T/C [20]: 102%
viability, T/C [21]: 98.1%
viability, T/C [22]: 97.3%
viability, T/C [23]: 31.1%
viability, T/C [24]: 15.9%
viability, T/C [25]: 103%
viability, T/C [26]: 104%
viability, T/C [27]: 101%
viability, T/C [28]: 90.5%
viability, T/C [29]: 40.6%
viability, T/C [30]: 12.1%
viability, T/C [31]: 104%
viability, T/C [32]: 98.8%
viability, T/C [33]: 111%
viability, T/C [34]: 94.6%
viability, T/C [35]: 38.3%
viability, T/C [36]: 13.5%

CCc1c2c(nc3ccc(O)cc13)-c1cc3c(c(=O)n1C2)COC(=O)[C@]3(O)CC + Cc1cccc(N(C)C(=O)C2C(O)CCN2c2nc(C)cc(C(F)(F)F)c2C#N)c1
IC50 (second compound 0.0316 µM): 11.6 nM
IC50 (second compound 0.1 µM): 14.3 nM
IC50 (second compound 0.316 µM): 14.2 nM
IC50 (second compound 1 µM): 17 nM
IC50 (second compound 3.16 µM): 13 nM
IC50 (second compound 10 µM): 6.84 nM
viability, T/C [37]: 89.5%
viability, T/C [38]: 55%
viability, T/C [1]: 15.1%
viability, T/C [2]: 12.8%
viability, T/C [3]: 12.9%
viability, T/C [4]: 15%
viability, T/C [39]: 91.8%
viability, T/C [40]: 63.5%
viability, T/C [7]: 20.2%
viability, T/C [8]: 11.3%
viability, T/C [9]: 12.8%
viability, T/C [10]: 16.3%
viability, T/C [41]: 100%
viability, T/C [42]: 63.4%
viability, T/C [13]: 19.7%
viability, T/C [14]: 11.9%
viability, T/C [15]: 12.4%
viability, T/C [16]: 17.1%
viability, T/C [43]: 100%
viability, T/C [44]: 72.8%
viability, T/C [19]: 23.5%
viability, T/C [20]: 10.3%
viability, T/C [21]: 12.4%
viability, T/C [22]: 15.3%
viability, T/C [45]: 90.9%
viability, T/C [46]: 58.3%
viability, T/C [25]: 21.7%
viability, T/C [26]: 9.8%
viability, T/C [27]: 12.3%
viability, T/C [28]: 17.4%
viability, T/C [47]: 82.3%
viability, T/C [48]: 34.1%
viability, T/C [31]: 10.5%
viability, T/C [32]: 10%
viability, T/C [33]: 13.9%
viability, T/C [34]: 17.7%

COc1cccc(OCCCN)c1-c1cc(Nc2cnc(C#N)cn2)n[nH]1 + Nc1ccc(C#CCN(C(=O)Cc2ncc(C(F)(F)F)cc2C(F)(F)F)c2ccc(F)cc2)nn1
IC50 (second compound 0.0316 µM): 590 nM
IC50 (second compound 0.1 µM): 670 nM
IC50 (second compound 0.316 µM): 617 nM
IC50 (second compound 1 µM): 609 nM
IC50 (second compound 3.16 µM): 277 nM
IC50 (second compound 10 µM): 52.3 nM
viability, T/C [37]: 102%
viability, T/C [38]: 100%
viability, T/C [1]: 98.2%
viability, T/C [2]: 97.3%
viability, T/C [3]: 83.4%
viability, T/C [4]: 22.1%
viability, T/C [39]: 104%
viability, T/C [40]: 99%
viability, T/C [7]: 95.9%
viability, T/C [8]: 98.5%
viability, T/C [9]: 99.1%
viability, T/C [10]: 23.8%
viability, T/C [41]: 102%
viability, T/C [42]: 98.2%
viability, T/C [13]: 94.7%
viability, T/C [14]: 99.7%
viability, T/C [15]: 92.3%
viability, T/C [16]: 19.4%
viability, T/C [43]: 102%
viability, T/C [44]: 105%
viability, T/C [19]: 101%
viability, T/C [20]: 96.3%
viability, T/C [21]: 94%
viability, T/C [22]: 16.9%
viability, T/C [45]: 96.1%
viability, T/C [46]: 98.1%
viability, T/C [25]: 99.2%
viability, T/C [26]: 94.2%
viability, T/C [27]: 44.3%
viability, T/C [28]: 14.8%
viability, T/C [47]: 95.9%
viability, T/C [48]: 92.8%
viability, T/C [31]: 74.7%
viability, T/C [32]: 18.3%
viability, T/C [33]: 10.5%
viability, T/C [34]: 10.6%

CC1COCCN1c1cc(-c2ccnn2C)c2ccnc(-c3ccn[nH]3)c2n1 (stereo not drawn) + Cc1cccc(N(C)C(=O)C2C(O)CCN2c2nc(C)cc(C(F)(F)F)c2C#N)c1
IC50 (second compound 0.0316 µM): 167 nM
IC50 (second compound 0.1 µM): 137 nM
IC50 (second compound 0.316 µM): 197 nM
IC50 (second compound 1 µM): 164 nM
IC50 (second compound 3.16 µM): 174 nM
IC50 (second compound 10 µM): 166 nM
viability, T/C [1]: 99.9%
viability, T/C [2]: 63.3%
viability, T/C [3]: 35.3%
viability, T/C [4]: 10.8%
viability, T/C [5]: 10.2%
viability, T/C [6]: 9.85%
viability, T/C [7]: 96.1%
viability, T/C [8]: 58.2%
viability, T/C [9]: 28.4%
viability, T/C [10]: 13.8%
viability, T/C [11]: 8.45%
viability, T/C [12]: 10.4%
viability, T/C [13]: 97.5%
viability, T/C [14]: 75.9%
viability, T/C [15]: 32.9%
viability, T/C [16]: 8.6%
viability, T/C [17]: 9.15%
viability, T/C [18]: 10.9%
viability, T/C [19]: 105%
viability, T/C [20]: 64.6%
viability, T/C [21]: 31.4%
viability, T/C [22]: 11.2%
viability, T/C [23]: 8.14%
viability, T/C [24]: 9.87%
viability, T/C [25]: 87.2%
viability, T/C [26]: 71.5%
viability, T/C [27]: 26.9%
viability, T/C [28]: 10.6%
viability, T/C [29]: 8.05%
viability, T/C [30]: 9.86%
viability, T/C [31]: 92.5%
viability, T/C [32]: 66.5%
viability, T/C [33]: 28.7%
viability, T/C [34]: 14.1%
viability, T/C [35]: 9.35%
viability, T/C [36]: 8.57%
